The values below come from patent publication US8367004B2, “Apparatus and methods for nanoparticle generation and process intensification of transport and reaction systems” (Microfluidics International Corporation, priority 2008, dated 2013).

Holding throughout (format): physicochemical
Data set [1] is described as follows: Particle size analysis of drug nanosuspensions by light scattering. As to the method: Crystallization experiments were performed using an exemplary reaction processor of the type depicted in FIG. 3. The solvent phase was fed into an intensifier pump using a peristaltic pump. The water phase was placed in the inlet reservoir and gravity fed. The two streams were blended at the inlet to the intensifier pump, noting that a low level of macro-mixing will occur at this process stage.
The total flow rate through the system was controlled by the microreactor design and process pressure. By varying the flow rate through the peristaltic pump at each processing pressure, various mixing ratios of the two streams were achieved. The following solvent-to-water volume ratios were examined: 1:3, 1:4, and 1:10. Equivalently, the water concentrations in the final mixture by weight were […], respectively. A total of 250 ml were processed in each experiment.
In addition to super-saturation, the effect of process pressure, NFN concentration in the solvent stream, and the presence of a surfactant were investigated. […] The concentration of NFN in DMSO varied from 5 to 20 mg NFN/ml DMSO. To determine if a surface active agent could help control particle size, a 1% aqueous solution of Suluton (BASF) was used to replace water as the anti-solvent, the concept being that the hydrophobic group of this amphoteric molecule would interact with the crystal surface at some threshold size, forming a barrier to further transport to and/or along the surface.
To provide appropriate controls for comparison, additional crystal production experiments were conducted by mixing the NFN/DMSO solution with water in a beaker at very low shear conditions. After mixing to obtain uniformity, NFN was allowed to form crystals under quiescent conditions. Size and shape characterization studies were performed. The crystals were then suspended in a saturated solution to conduct particle size reduction experiments under high shear rates using standard Microfluidizer® technology. The purpose was to compare this size reduction process on already grown crystals (“top-down” process) with the in situ process of growing crystal to the desired size with the apparatus/system of the present disclosure (“bottom-up” process).
The particle size distribution of the nano-suspensions was measured by two different methods: • (a) Light scattering using a Horiba 910 particle size analyzer: This instrument has a wide dynamic range of between 20 nm-1000 microns. • (b) Dynamic light scattering using a Malvern NanoS particle size analyzer: This instrument has a dynamic range of 0.5 nm-6 microns
(§1) Crystallization experiments using the disclosed apparatus/system were conducted at 138 and 83 MPa (20,000 and 12,000 psi) process pressures. […] The solvents were either dimethyl sulfoxide (DMSO) or N-Methyl-2-Pyrrolidone (NMP), and the antisolvent was water (see TABLE 3). Of note, alternative solvents include methanol, ethanol, acetone, dichloromethane, octanol and isopropyl alcohol, and alternative antisolvents include hexane and heptane. The water volume flow rate was typically 3-10 times the solvent volume flow rate, resulting in supersaturation between 1.4 and 9.
For the “top down” control experiments, suspensions of micron size crystals were processed with a conventional Microfluidizer® high shear processor. These crystals had been grown under no shear conditions by pouring the solvent and antisolvent streams into a beaker and then allowing the crystals to grow without stirring the fluids.
(§2) Material characterization was performed in the same manner as described above with reference to Example 1.

Data set [2] is described as follows: Electron microscopy of particle dimensions and shape. As to the method:
A Hitachi S-4800 field-emission SEM was used to examine the surface structure and shape of the drug particles and also to verify qualitatively the particle size obtained from the particle size analyzers.
as §2

Data set [3] in a line: Stability of nanosuspensions. On the procedure:
as §1
A surfactant was added to the antisolvent (water) in order to: (a) stabilize the nanoparticles and limit their growth, and (b) minimize agglomeration of the particles and to thereby create a stable suspension. Two non-ionic surfactants were used, Solutol® HS 15 (polyoxyethylene esters of 12-hydroxystearic acid; […]) and a hydrophobically modified inulin polymeric surfactant, INUTEK SP1 (Orafti).

Data set [4] is described as follows: XRD percent crystallinity and crystallite size. As to the method: The samples were analyzed using a Rigaku Ultima III diffractometer. XRD analysis was used to investigate the effect of the processing conditions on the crystalline characteristics, i.e., structure, percent of crystallinity and crystallite size of NFN.
Data set [5] is described as follows: Theoretical efficiency of solvent/antisolvent crystallization. Conditions: 138 MPa. The text has this:
(§3) The solubility data were used to estimate super-saturation ratios and the theoretical efficiency of the process, which is defined as the percentage of the drug present in the solvent that precipitates as the solvent and antisolvent streams mix.

A short description of data set [6]: Solubility of NFN in water/DMSO mixtures (batch, gravimetric). Conditions: for NFN solubility / % NFN precipitation from saturated DMSO solution: 20° C. As to the method: Water was mixed with a DMSO-NFN solution of known concentration, while maintaining miscible conditions, to obtain a super-saturation state. […] The crystals were filtered from the liquid, then dried in a vacuum oven for about 10 hours at 90° C., and weighed. The filtered liquid phase was evaporated to dryness and the mass of the solid residue determined gravimetrically. The mass balance of the NFN (total amount recovered/amount dissolved) was also determined to establish precision of the solubility limit estimate. The closure was always greater than 90 percent.
as §3

Data set [7] in a line: Mass transfer study, octanol phase to water phase. Conditions: transfer from an octanol phase to a water phase. On the procedure: The interfacial area in process intensification equipment can be quantified by performing mass transfer studies. In particular, a solute is introduced into the system of interest (e.g. methanol and soybean oil) and the mass transfer rate of this solute from one phase to the other is measured. The interfacial area can then be calculated. In order to accomplish this determination, it is necessary to have an estimate of the mass transfer coefficients in the individual phases—which can be determined through bench-top experiments. Reactant systems may be processed in the disclosed apparatus/system and a measurement of inlet concentration of the solute is made. The system is run at different flow rates until the concentration at the outlet is equal to the equilibrium concentration. […] The interfacial area can then be obtained.

Where [8] appears, read: Disclosed System, solvent, surfactant, pressure per Table 3.
The mark [9] stands for this setting: suspension from Disclosed System.
The mark [10] stands for this setting: overnight, particles produced with disclosed system.
Setting [11] is: particles produced with control method.
Setting [12] is: 138 MPa, 5 mg NFN/ml DMSO, DMSO:water 1:4, passed twice, Horiba.
Where [13] appears, read: NFN nanosuspension from disclosed system, SEM.
Setting [14] is: Control (beaker, no shear), Solutol, SLS.

Several values for one entry are separate records, joined by “and”; a condition that tells them apart may be missing. Equal values may be shown once. Where only a bound is given, the exact number is not on record here.

Consider `CC[C@H]1OC(=O)[C@H](C)[C@@H](O[C@H]2C[C@@](C)(OC)[C@@H](O)[C@H](C)O2)[C@H](C)[C@@H](O[C@@H]2O[C@H](C)C[C@H](N(C)C)[C@H]2O)[C@](C)(O)C[C@@H](C)CN(C)[C@H](C)[C@@H](O)[C@]1(C)O` [Azithromycin], for which, in data set [1] (setting [8]), the “median particle size” value is given as 50-100 nm. Moreover, in data set [2] (Disclosed System), the Shape result is on record as “Spheroidal”. Also, in data set [3] (in solvent and antisolvent mixture, and in water after solvent removed), the stability of nanosuspension entry is “stable”. In addition, the Stability entry in data set [3] (setting [9]) is on record as “Stable”.
Turning to `CCOC(=O)N1CCC(=C2c3ccc(Cl)cc3CCc3cccnc32)CC1` [Loratadine], the “median particle size” value in data set [1] (Disclosed System, INUTEK (DMSO), DLS) is reported as 332 nm; in data set [1] (Disclosed System, INUTEK (NMP), DLS), 379 nm; in data set [1] (Disclosed System, Solutol (DMSO), DLS), 90 nm; in data set [1] (Disclosed System, Solutol (NMP), DLS), 183 nm. The particle size in data set [1] (INUTEK as surfactant) is given as 332-379 nm. The initial particle size result in data set [1] (Solutol as surfactant, DMSO and NMP) is given as “about 90 nm”. In addition, the Shape entry is given as “Needle” in data set [2] (Disclosed System, INUTEK (DMSO)) and “Needle” in data set [2] (Disclosed System, INUTEK (NMP)). Besides, the needle length is recorded as 10-20 microns in data set [2] (setting [10]) and “hundreds of microns” in data set [2] (setting [11]). Further, the needle width in data set [2] (setting [10]) is 0.5-2 microns; in data set [2] (setting [11]), “tens of microns”.
Regarding `CCn1cc(C(=O)O)c(=O)c2cc(F)c(N3CCNCC3)cc21` [NFN, Norfloxacin], the “Average Crystallite Size” value is on record as 441 Å in data set [4] (As purchased), 239 Å in data set [4] (Re-crystallized (high shear)), 275 Å in data set [4] (Re-crystallized (low shear)) and 727 Å in data set [4] (Re-crystallized (no shear)). The “Percent Crystallinity (±4%)” value was 84.1% in data set [4] (As purchased); 79.7% in data set [4] (Re-crystallized (high shear)); 78% and 77.8% in data set [4] (Re-crystallized (low shear)); 85% and 85.1% in data set [4] (Re-crystallized (no shear)). The “theoretical efficiency (percentage of NFN that precipitates)” value in data set [5] (supersaturation ratio about 1.5) was 32%; in data set [5] (supersaturation ratio about 7), 85%. The median particle size entry was “approximately 320 nm” in data set [1] (60 MPa, 10 mg/ml DMSO, DMSO:water 1:4, passed twice); 186 nm in data set [1] (setting [12]); “approximately 190 nm” in data set [1] (138 MPa, DMSO:water 1:4, passed twice, 5 mg NFN/g DMSO); ~340 nm in data set [1] (138 MPa, DMSO:water 1:4, passed twice, 20 mg NFN/g DMSO); “about 200 nm” in data set [1] (140 MPa, 10 mg/ml DMSO, DMSO:water 1:4, passed twice); 170-350 nm in data set [1] (NFN nanosuspensions, range over all Example 1 experiments). In addition, the figures for the median particle size in data set [1] (control crystals after 30 passes at 207 MPa in standard Microfluidizer (top-down)), in data set [1] (with Suluton surfactant) and in data set [1] (without surfactant) were 428 nm, 204 nm and 209 nm, respectively. Besides, the “peak of particle size distribution” value in data set [1] (setting [12]) is on record as 166 nm. Also, the needle length in data set [2] (setting [13]) is reported as 200-300 nm. Besides, the needle width in data set [2] (setting [13]) is reported as 70-100 nm. The particle length result in data set [2] (crystallized in low shear environment (control)) is recorded as “up to 1 mm”. In addition, the NFN solubility in data set [6] (0.00 wt % water in water/DMSO solution) is recorded as 21.00 mg drug/g solution; in data set [6] (9.17 wt % water in water/DMSO solution) it was 7.18 mg drug/g solution; in data set [6] (28.04 wt % water in water/DMSO solution), 1.57 mg drug/g solution; in data set [6] (47.62 wt % water in water/DMSO solution), 0.86 mg drug/g solution; in data set [6] (57.69 wt % water in water/DMSO solution), 0.64 mg drug/g solution; in data set [6] (73.17 wt % water in water/DMSO solution), 0.71 mg drug/g solution. Further, the NFN solubility in data set [6] (90.19 wt % water in water/DMSO solution) is listed as 0.00 mg drug/g solution. In addition, the “% NFN precipitation from saturated DMSO solution” value in data set [6] (0.00 wt % water) is recorded as 0.00%; in data set [6] (9.17 wt % water), 43.39%; in data set [6] (47.62 wt % water) it was 91.43%; in data set [6] (57.69 wt % water) it was 92.86%; in data set [6] (73.17 wt % water) it was 89.52%; in data set [6] (90.19 wt % water), 100.00%. For the same compound, the “% of NFN that precipitates” value in data set [6] (50 wt % water) is “about 92%”. The “solubility limit of NFN in DMSO” value in data set [6] (ambient temperature) was “about 21 mg NFN/g DMSO”. The “reduction of NFN solubility” value in data set [6] (dilution of DMSO solution to 28 wt % water) is recorded as “over 13 times”.
Turning to `NC(=O)N1c2ccccc2CC(=O)c2ccccc21` [Oxycarbazepine], the “Median Particle Size (needle length)” value in data set [1] (setting [14]) was 20,000 nm. The “Median Particle Size (needle width)” value in data set [1] (setting [14]) was 5000 nm. Also, the “median particle size” value in data set [1] (Control with site reduction after 25 passes, SLS) is given as 1200 nm; in data set [1] (setting [8]), 767 nm; in data set [1] (control sample after 25 passes through standard Microfluidizer processor), 1.2 microns. Further, in data set [1] (Disclosed System), the “particles by volume in the range of 2.5-6 microns” value is “about 5%”. The “larger peak of bimodal particle size distribution” value in data set [1] (Disclosed System, SLS) is “about 1 micron”. In data set [1] (Disclosed System, SLS), the “smaller peak of bimodal particle size distribution” value is on record as “about 340 nm”. Also, the needle length result in data set [1] (control conditions (beaker)) is on record as “about 20 microns”. In addition, the needle width entry in data set [1] (control conditions (beaker)) is “about 5 microns”. In data set [1] (control sample after 25 passes), the “population of particles with sizes in the range of 4-6 microns” value is on record as “about 5%”. In addition, in data set [2] (Control), the Shape result is listed as “Needle”. Besides, the Stability result in data set [3] (Control) was “Stable”; in data set [3] (Control with site reduction after 25 passes), “Stable”; in data set [3] (setting [9]) it was “Stable”; in data set [3] (suspension from Disclosed System, listed as oxycarbazepine), “stable”.
`CC(=O)Oc1ccccc1C(=O)O` [aspirin]: the interfacial transfer coefficients in data set [7] is reported as ≤ 0.5 m/s.
